“And” between values parts separate entries of the source, which are not always exact repeats. Equal entries are not always repeated. Where two headings read alike, the source gives them in different places.
Key:
[1] = tested on: IFN-γ production by ConA-stimulated splenocytes; experiment: IFN-γ production by ConA-stimulated splenocytes (EIA); format: in vivo, mice
[2] = tested on: M. tuberculosis strain H37Rv; format: in vivo, mice; settings: for CFUs of BCG per ml of Lung Homogenate, MEAN / CFUs of BCG per ml of Lung Homogenate, MEDIAN / CFUs of BCG per ml of Lung Homogenate, individual mice M1-M5: day 61
lymphocytes = format: in vivo, human
[3] = tested on: IL-12R40 production by OvA-stimulated splenocytes; experiment: OvA-stimulated production of IL-12R40 by splenocytes of OvA-immunized mice; settings: Mus musculus, Splenocyte, po, read-out: Production of IL-12R40 by splenocytes, % (% of control), OvA/FA; for activity at 0.0001 mg/kg: 0.1 μg/kg per os
Protocol: The OvA was administered subcutaneously to the crest in a volume of 200 μl. Mice were immunized on day 1 with OvA in complete Freund's adjuvant (CFA; Sigma) and on day 15 with the antigen in incomplete Freund's adjuvant (IFA; Sigma). The immune response was analyzed on day 29. Mice were also immunized with 10 μg/mouse of OvA using Alum as an adjuvant.
Thymuses and spleens from mice of each treatment group were pooled, and then minced with scissors. The minced tissues were suspended in sterile PBS to form cell suspensions, filtered through a double gauze layer and centrifuged. Cells were washed twice with PBS, re-suspended in RPMI-1640 (Sigma) with 2.0 mM of L-glutamine, 50 μM of mercaptoethanol, and 10 μg/ml of gentamycin (complete medium); and cell counts were made. (The splenocyte suspension was washed with a 0.86% solution of NH4Cl to pre-lyse erthrocytes.)
Assessment of Mitogen- and Antigen-Induced Production of Cytokines: Thymic cells (1×10^6/well) in complete medium with 2% FCS were stimulated with ConA (0, 1, and 2 μg/ml). Splenocytes (1×10^6/well) in complete medium with 5% FCS were stimulated with ConA (0, 1, and 5 μg/ml) and with OvA (0-100 μg/ml). […] Supernatants from OvA-stimulated cultures were collected after 72 hours. Supernatants from both cultures were frozen, and kept at 20° C. Concentrations of IL-2, IL-4, IL-10, IL-12R40 and IFNγ in the supernatants were determined by solid-phase EIA with EIA Expansion Kits, available from BD Biosciences (formerly Pharmingen), in accordance with the manufacturer's instructions.

[4] = group 3: BCG + 0.01 μg SCV-07 D1-D5
[5] = group 4: BCG + 0.01 μg SCV-07 D1-D30
[6] = group 5: BCG + 0.01 μg SCV-07 D1-5, D7, 11, 14, 18, 21, 25, 28
[7] = group 6: BCG + 0.01 μg SCV-07 D6-D30
[8] = group 7: BCG + 0.20 μg SCV-07 D1-D5
[9] = group 8: BCG + 0.20 μg SCV-07 D1-D30
[10] = group 9: BCG + 0.20 μg SCV-07 D1-5, D7, 11, 14, 18, 21, 25, 28
[11] = group 10: BCG + 0.20 μg SCV-07 D6-D30
[12] = group 11: BCG + 2.0 μg SCV-07 D1-D5
[13] = group 12: BCG + 2.0 μg SCV-07 D1-D30
[14] = group 13: BCG + 2.0 μg SCV-07 D1-5, D7, 11, 14, 18, 21, 25, 28
[15] = group 14: BCG + 2.0 μg SCV-07 D6-D30
[16] = Healthy of group 3 after vaccination
[17] = Patients of group 2 (SCV-07 + vaccine), After vaccination

## N[C@H](CCC(=O)N[C@@H](Cc1c[nH]c2ccccc12)C(=O)O)C(=O)O [SCV-07, γ-D-glutamyl-L-tryptophan]
[1]; ConA 1 μg/ml, 0.01 μg/kg per os
  IFN-γ: 15499 pg/mL
[1]; ConA 1 μg/ml, 0.1 μg/kg i/p
  IFN-γ: 13089 pg/mL
[1]; ConA 1 μg/ml, 0.1 μg/kg per os
  IFN-γ: 15695 pg/mL
[1]; ConA 1 μg/ml, 1.0 μg/kg i/p
  IFN-γ: 30951 pg/mL
[1]; ConA 1 μg/ml, 1.0 μg/kg per os
  IFN-γ: 11411 pg/mL
[1]; ConA 1 μg/ml, 10.0 μg/kg per os
  IFN-γ: 8238 pg/mL
[1]; ConA 1 μg/ml, 100.0 μg/kg per os
  IFN-γ: 12990 pg/mL
[1]; ConA 5 μg/ml, 0.01 μg/kg per os
  IFN-γ: 63227 pg/mL
[1]; ConA 5 μg/ml, 0.1 μg/kg i/p
  IFN-γ: 87051 pg/mL
[1]; ConA 5 μg/ml, 0.1 μg/kg per os
  IFN-γ: 65692 pg/mL
[1]; ConA 5 μg/ml, 1.0 μg/kg i/p
  IFN-γ: 142155 pg/mL
[1]; ConA 5 μg/ml, 1.0 μg/kg per os
  IFN-γ: 47683 pg/mL
[1]; ConA 5 μg/ml, 10.0 μg/kg per os
  IFN-γ: 66185 pg/mL
[1]; ConA 5 μg/ml, 100.0 μg/kg per os
  IFN-γ: 43670 pg/mL
[1]; Spontaneous, 0.01 μg/kg per os
  IFN-γ: 0 pg/mL
[1]; Spontaneous, 0.1 μg/kg i/p
  IFN-γ: 1393 pg/mL
[1]; Spontaneous, 0.1 μg/kg per os
  IFN-γ: 0 pg/mL
[1]; Spontaneous, 1.0 μg/kg i/p
  IFN-γ: 1738 pg/mL
[1]; Spontaneous, 1.0 μg/kg per os
  IFN-γ: 1629 pg/mL
[1]; Spontaneous, 10.0 μg/kg per os
  IFN-γ: 0 pg/mL
[1]; Spontaneous, 100.0 μg/kg per os
  IFN-γ: 0 pg/mL
[2]; about 8-10 μg/kg
  dose with optimal enhancing effect of SCV-07 for vaccination with BCG: 0.20 µg
[2]; [4]
  CFUs of BCG per ml of Lung Homogenate, MEAN: 5.0 log10 CFU per milliliter
  CFUs of BCG per ml of Lung Homogenate, MEDIAN: 4.9 log10 CFU per milliliter
  CFUs of BCG per ml of Lung Homogenate, individual mice M1-M5: 4.8 log10 CFU per milliliter (2×) and 5.3 log10 CFU per milliliter (2×) and 4.9 log10 CFU per milliliter
[2]; [5]
  CFUs of BCG per ml of Lung Homogenate, MEAN: 4.8 log10 CFU per milliliter
  CFUs of BCG per ml of Lung Homogenate, MEDIAN: 4.9 log10 CFU per milliliter
  CFUs of BCG per ml of Lung Homogenate, individual mice M1-M5: 5.1 log10 CFU per milliliter and 4.8 log10 CFU per milliliter and 5.0 log10 CFU per milliliter and 4.3 log10 CFU per milliliter
[2]; [6]
  CFUs of BCG per ml of Lung Homogenate, MEAN: 4.9 log10 CFU per milliliter
  CFUs of BCG per ml of Lung Homogenate, MEDIAN: 5.0 log10 CFU per milliliter
  CFUs of BCG per ml of Lung Homogenate, individual mice M1-M5: 5.1 log10 CFU per milliliter (2×) and 5.0 log10 CFU per milliliter and 4.6 log10 CFU per milliliter and 4.8 log10 CFU per milliliter
[2]; [7]
  CFUs of BCG per ml of Lung Homogenate, MEAN: 5.5 log10 CFU per milliliter
  CFUs of BCG per ml of Lung Homogenate, MEDIAN: 5.5 log10 CFU per milliliter
  CFUs of BCG per ml of Lung Homogenate, individual mice M1-M5: 5.4 log10 CFU per milliliter and 5.5 log10 CFU per milliliter (2×) and 5.7 log10 CFU per milliliter
[2]; [8]
  CFUs of BCG per ml of Lung Homogenate, MEAN: 4.9 log10 CFU per milliliter
  CFUs of BCG per ml of Lung Homogenate, MEDIAN: 5.0 log10 CFU per milliliter
  CFUs of BCG per ml of Lung Homogenate, individual mice M1-M5: 4.8 log10 CFU per milliliter (2×) and 5.0 log10 CFU per milliliter (2×) and 5.1 log10 CFU per milliliter
[2]; [9]
  CFUs of BCG per ml of Lung Homogenate, MEAN: 4.6 log10 CFU per milliliter
  CFUs of BCG per ml of Lung Homogenate, MEDIAN: 4.6 log10 CFU per milliliter
  CFUs of BCG per ml of Lung Homogenate, individual mice M1-M5: 4.5 log10 CFU per milliliter and 4.7 log10 CFU per milliliter (2×) and 4.6 log10 CFU per milliliter
[2]; [10]
  CFUs of BCG per ml of Lung Homogenate, MEAN: 4.8 log10 CFU per milliliter
  CFUs of BCG per ml of Lung Homogenate, MEDIAN: 4.8 log10 CFU per milliliter
  CFUs of BCG per ml of Lung Homogenate, individual mice M1-M5: 4.6 log10 CFU per milliliter and 4.4 log10 CFU per milliliter and 4.9 log10 CFU per milliliter and 5.1 log10 CFU per milliliter and 4.8 log10 CFU per milliliter
[2]; [11]
  CFUs of BCG per ml of Lung Homogenate, MEAN: 5.3 log10 CFU per milliliter
  CFUs of BCG per ml of Lung Homogenate, MEDIAN: 5.3 log10 CFU per milliliter
  CFUs of BCG per ml of Lung Homogenate, individual mice M1-M5: 5.4 log10 CFU per milliliter and 5.2 log10 CFU per milliliter
[2]; [12]
  CFUs of BCG per ml of Lung Homogenate, MEAN: 5.0 log10 CFU per milliliter
  CFUs of BCG per ml of Lung Homogenate, MEDIAN: 5.1 log10 CFU per milliliter
  CFUs of BCG per ml of Lung Homogenate, individual mice M1-M5: 5.1 log10 CFU per milliliter (3×) and 4.8 log10 CFU per milliliter (2×)
[2]; [13]
  CFUs of BCG per ml of Lung Homogenate, MEAN: 5.0 log10 CFU per milliliter
  CFUs of BCG per ml of Lung Homogenate, MEDIAN: 5.1 log10 CFU per milliliter
  CFUs of BCG per ml of Lung Homogenate, individual mice M1-M5: 5.1 log10 CFU per milliliter and 4.8 log10 CFU per milliliter and 5.3 log10 CFU per milliliter (2×) and 4.6 log10 CFU per milliliter
[2]; [14]
  CFUs of BCG per ml of Lung Homogenate, MEAN: 4.9 log10 CFU per milliliter
  CFUs of BCG per ml of Lung Homogenate, MEDIAN: 4.8 log10 CFU per milliliter
  CFUs of BCG per ml of Lung Homogenate, individual mice M1-M5: 4.8 log10 CFU per milliliter (2×) and 4.7 log10 CFU per milliliter and 5.1 log10 CFU per milliliter and 5.3 log10 CFU per milliliter
[2]; [15]
  CFUs of BCG per ml of Lung Homogenate, MEAN: 5.4 log10 CFU per milliliter
  CFUs of BCG per ml of Lung Homogenate, MEDIAN: 5.4 log10 CFU per milliliter
  CFUs of BCG per ml of Lung Homogenate, individual mice M1-M5: 5.3 log10 CFU per milliliter (2×) and 5.4 log10 CFU per milliliter and 5.5 log10 CFU per milliliter
lymphocytes; [16]
  CD3+ (%): 33.10 ± 1.88%
  CD4+ (%): 22.86 ± 1.94%
  CD4+/CD8+ conv. units: 1.203 ± 0.094 conv. units
  CD8+ (%): 19.71 ± 1.53%
  CD16+ (%): 15.19 ± 1.24%
  CD95+ (%): 14.62 ± 1.60%
lymphocytes; [17]
  CD3+ (%): 29.60 ± 2.41%
  CD4+ (%): 20.13 ± 1.65%
  CD4+/CD8+ conv. units: 1.111 ± 0.086 conv. units
  CD8+ (%): 18.27 ± 1.01%
  CD16+ (%): 13.07 ± 1.18%
  CD95+ (%): 12.60 ± 1.18%
[3]; OvA 0 μg/ml
  activity at 0.0001 mg/kg: 100%
[3]; OvA 10 μg/ml
  activity at 0.0001 mg/kg: 36.6%
[3]; OvA 25 μg/ml
  activity at 0.0001 mg/kg: 24.3%
[3]; OvA 50 μg/ml
  activity at 0.0001 mg/kg: 20.4%
[3]; OvA 100 μg/ml
  activity at 0.0001 mg/kg: 18.9%
[3]; 1.0 μg/kg per os, OvA 0 μg/ml
  activity at 0.001 mg/kg: 100%
